Results on 13 compounds are retold here after patent US9856279B2 (AGIOS PHARMACEUTICALS, INC, priority 2011, dated 2018).

The target in this assay is IDH1 R132H (Homo sapiens, UniProt O75874, R132H). As to the kind of experiment: Assay for IDH1 R132H inhibitors (NADPH/aKG, resazurin detection). The assay is classed as biochemical. The following applies: enzyme assay of Example 12; read-out: IDH1R132H IC50. Put shortly:
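Read-out is resorufin fluorescence (Ex544/Em590) 5 min after adding a 30 μM resazurin detection mix. Before that, mutant enzyme (0.2 μg/ml in its mix) ran 50 min at room temperature with compound, 8 uM NADPH and 2 mM aKG (mix levels) in Tris pH 7.5 with NaCl, MgCl2, BSA.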

IDH1 R132H, sequence (O75874 whole entry R132H): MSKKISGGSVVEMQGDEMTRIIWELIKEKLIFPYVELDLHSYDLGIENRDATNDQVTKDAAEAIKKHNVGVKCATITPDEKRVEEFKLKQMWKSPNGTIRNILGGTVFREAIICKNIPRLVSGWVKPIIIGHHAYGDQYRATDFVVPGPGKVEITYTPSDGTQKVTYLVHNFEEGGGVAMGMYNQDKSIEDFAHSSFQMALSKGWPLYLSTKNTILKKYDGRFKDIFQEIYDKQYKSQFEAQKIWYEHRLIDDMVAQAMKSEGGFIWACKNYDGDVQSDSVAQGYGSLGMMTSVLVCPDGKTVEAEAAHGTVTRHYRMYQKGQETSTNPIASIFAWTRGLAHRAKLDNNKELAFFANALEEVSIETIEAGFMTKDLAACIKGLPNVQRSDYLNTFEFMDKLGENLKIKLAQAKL

With `CN(C)c1nccc(-c2cc(C#N)c(N3CCN(C(=O)CC(F)(F)F)[C@H](C4CC4)C3)nc2C2CC2)n1` [Compound 521, (R)-6-cyclopropyl-2-(3-cyclopropyl-4-(3,3,3-trifluoropropanoyl)piperazin-1-yl)-5-(2-(dimethylamino)pyrimidin-4-yl)nicotinonitrile], the IC50 (usually the concentration needed to halve the response being measured) was less than 0.5 µM.

As for `Cc1cc(-c2cc(C#N)c(N3CCN(C(=O)C4CC4)[C@H](C4CC4)C3)nc2C2CC2)ccn1` [Compound 523, (R)-6-(4-(cyclopropanecarbonyl)-3-cyclopropylpiperazin-1-yl)-2-cyclopropyl-2′-methyl-3,4′-bipyridine-5-carbonitrile], the IC50 fell in the range of 0.5 to 1 µM.

Regarding `N#Cc1cc(-c2cccnc2)c(C2CC2)nc1N1CCN(C(=O)CC(F)(F)F)[C@H](C2CC2)C1` [Compound 524, (R)-2-cyclopropyl-6-(3-cyclopropyl-4-(3,3,3-trifluoropropanoyl)piperazin-1-yl)-[3,3′-bipyridine]-5-carbonitrile], the IC50 was less than 0.5 µM.

Turning to `N#Cc1cncc(-c2cc(C#N)c(N3CCN(C(=O)CC(F)(F)F)[C@H](C4CC4)C3)nc2C2CC2)c1` [Compound 525, (R)-2-cyclopropyl-6-(3-cyclopropyl-4-(3,3,3-trifluoropropanoyl)piperazin-1-yl)-[3,3′-bipyridine]-5,5′-dicarbonitrile], the IC50 was less than 0.5 µM.

With `N#Cc1cc(-c2cccc3nccnc23)c(C2CC2)nc1N1CCN(C(=O)C2CC2)[C@H](C2CC2)C1` [Compound 531, (R)-2-(4-(cyclopropanecarbonyl)-3-cyclopropylpiperazin-1-yl)-6-cyclopropyl-5-(quinoxalin-5-yl)nicotinonitrile], the 50% inhibitory concentration (IC50) was less than 0.5 µM. The same measure for `N#Cc1cc(-c2cccc3nccnc23)c(C2CC2)nc1N1CCN(C(=O)CC(F)(F)F)[C@H](C2CC2)C1` [Compound 532, (R)-6-cyclopropyl-2-(3-cyclopropyl-4-(3,3,3-trifluoropropanoyl)piperazin-1-yl)-5-(quinoxalin-5-yl)nicotinonitrile]: less than 0.5 µM; for `N#Cc1cc(-c2ccnc(N)n2)c(C2CC2)nc1N1CCN(C(=O)CC(F)(F)F)[C@H](C2CC2)C1` [Compound 534]: less than 0.5 µM; for `N#Cc1cc(-c2cccc3nc(N)ncc23)c(C2CC2)nc1N1CCN(C(=O)C2CC2)[C@H](C2CC2)C1` [Compound 538, (R)-5-(2-aminoquinazolin-5-yl)-2-(4-(cyclopropanecarbonyl)-3-cyclopropylpiperazin-1-yl)-6-cyclopropylnicotinonitrile]: less than 0.5 µM. The same measure for `N#Cc1cc(-c2cncc(C(N)=O)c2)c(C2CC2)nc1N1CCN(C(=O)CC(F)(F)F)[C@H](C2CC2)C1` [Compound 540, (R)-5′-cyano-2′-cyclopropyl-6′-(3-cyclopropyl-4-(3,3,3-trifluoropropanoyl)piperazin-1-yl)-[3,3′-bipyridine]-5-carboxamide]: less than 0.5 µM; for `N#Cc1cc(-c2cc(Cl)nc3ccccc23)c(C2CC2)nc1N1CCN(C(=O)C2CC2)[C@H](C2CC2)C1` [Compound 543, (R)-5-(2-chloroquinolin-4-yl)-2-(4-(cyclopropanecarbonyl)-3-cyclopropylpiperazin-1-yl)-6-cyclopropylnicotinonitrile]: 0.5 to 1 µM. On to `CCO[C@H]1C[C@@H]1C(=O)N1CCN(c2nc(C3CC3)c(-c3ccc(F)cc3)cc2C#N)C[C@H]1C1CC1` [Compound 548, 6-cyclopropyl-2-((R)-3-cyclopropyl-4-((1S,2S)-2-ethoxycyclopropanecarbonyl)piperazin-1-yl)-5-(4-fluorophenyl)nicotinonitrile], for which the IC50 lay in the range of 0.5 to 1 µM. With `N#Cc1cc(-c2cccc3nc(Cl)ccc23)c(C2CC2)nc1N1CCN(C(=O)C2CC2)[C@H](C2CC2)C1` [Compound 549, (R)-5-(2-chloroquinolin-5-yl)-2-(4-(cyclopropanecarbonyl)-3-cyclopropylpiperazin-1-yl)-6-cyclopropylnicotinonitrile], the concentration for half-maximal inhibition (IC50) was less than 0.5 µM. For `N#Cc1cc(-c2ccc3[nH]ncc3c2)c(C2CC2)nc1N1CCN(C(=O)CC(F)(F)F)[C@H](C2CC2)C1` [Compound 552], the half-maximal inhibitory concentration (IC50) was less than 0.5 µM.
